{"source": "PubChem BioAssay AID504625", "about": "(Southern Research Specialized Biocontainment Screening …, 2011)", "tested_on": "human PBMC, HIV-1 X4 replication, supernatant RT activity", "assay": "inhibitors of X4-tropic HIV-1 replication in PBMC, dose response, cell-based, human PBMC, set 3 (AID 504625)", "data": [{"smiles": "Cc1c2c(=O)n(-c3nc4ccccc4s3)nc-2cc(O)n1Cc1ccccc1", "values": [{"measurement": "IC50", "result": 1510, "unit": "nM"}]}]}
